# Test results reported in ChEMBL document CHEMBL3044672, “N9- and N7-(Chloromethyl Phenymethyl)Chloropurine Derivatives from , '-Dichloroxylenes: Synthesis and Anticancer Activity” (2005).
# Columns and labels:
# Type in all cases: functional
# [1] = system: SNB-19; assay: Cytotoxicity against Homo sapiens (human) SNB19 cells after 48 hr by sulforhodamine B assay; conditions: SNB-19, 48 h
# [2] = system: SK-MEL-5; assay: Cytotoxicity against Homo sapiens (human) SK-MEL-5 cells after 48 hr by sulforhodamine B assay; conditions: SK-MEL-5, 48 h
# [3] = system: NCI-H460; assay: Cytotoxicity against Homo sapiens (human) NCI-H460 cells after 48 hr by sulforhodamine B assay; conditions: NCI-H460, 48 h
# [4] = system: OVCAR-8; assay: Cytotoxicity against Homo sapiens (human) OVCAR8 cells after 48 hr by sulforhodamine B assay; conditions: OVCAR-8, 48 h
# [5] = system: OVCAR-5; assay: Cytotoxicity against Homo sapiens (human) OVCAR5 cells after 48 hr by sulforhodamine B assay; conditions: OVCAR-5, 48 h
# [6] = system: SK-MEL-2; assay: Cytotoxicity against Homo sapiens (human) SK-MEL-2 cells after 48 hr by sulforhodamine B assay; conditions: SK-MEL-2, 48 h
# [7] = system: M14; assay: Cytotoxicity against Homo sapiens (human) M14 cells after 48 hr by sulforhodamine B assay; conditions: M14, 48 h
# [8] = system: OVCAR-3; assay: Cytotoxicity against Homo sapiens (human) OVCAR3 cells after 48 hr by sulforhodamine B assay; conditions: OVCAR-3, 48 h
# [9] = system: PC-3; assay: Cytotoxicity against Homo sapiens (human) PC3 cells after 48 hr by sulforhodamine B assay; conditions: PC-3, 48 h
# [10] = system: NCI-H226; assay: Cytotoxicity against Homo sapiens (human) NCI-H226 cells after 48 hr by sulforhodamine B assay; conditions: NCI-H226, 48 h
# [11] = system: EKVX; assay: Cytotoxicity against Homo sapiens (human) EKVX cells after 48 hr by sulforhodamine B assay
# [12] = system: 786-0; assay: Cytotoxicity against Homo sapiens (human) 786-0 cells after 48 hr by sulforhodamine B assay; conditions: 786-0, 48 h
# [13] = system: MCF7; assay: Cytotoxicity against Homo sapiens (human) MCF7 cells after 48 hr by sulforhodamine B assay; conditions: MCF7, 48 h
# [14] = system: T47D; assay: Cytotoxicity against Homo sapiens (human) T47D cells after 48 hr by sulforhodamine B assay
# [15] = system: ACHN; assay: Cytotoxicity against Homo sapiens (human) ACHN cells after 48 hr by sulforhodamine B assay
# [16] = system: UO-31; assay: Cytotoxicity against Homo sapiens (human) UO31 cells after 48 hr by sulforhodamine B assay; conditions: UO-31, 48 h
# [17] = system: SK-MEL-28; assay: Cytotoxicity against Homo sapiens (human) SK-MEL-28 cells after 48 hr by sulforhodamine B assay; conditions: SK-MEL-28, 48 h
# [18] = system: HT-29; assay: Cytotoxicity against Homo sapiens (human) HT-29 cells after 48 hr by sulforhodamine B assay; conditions: HT-29, 48 h
# [19] = system: U-251; assay: Cytotoxicity against Homo sapiens (human) U251 cells after 48 hr by sulforhodamine B assay; conditions: U-251, 48 h
# [20] = system: BT-549; assay: Cytotoxicity against Homo sapiens (human) BT549 cells after 48 hr by sulforhodamine B assay; conditions: BT-549, 48 h
# [21] = system: HOP-92; assay: Cytotoxicity against Homo sapiens (human) HOP92 cells after 48 hr by sulforhodamine B assay; conditions: HOP-92, 48 h
# [22] = system: SF-268; assay: Cytotoxicity against Homo sapiens (human) SF268 cells assessed as cell growth at 10^-4 M after 48 hr by […] assay; conditions: SF-268, 48 h, read-out: Activity
# [23] = system: SF-539; assay: Cytotoxicity against Homo sapiens (human) SF539 cells after 48 hr by sulforhodamine B assay; conditions: SF-539, 48 h
# [24] = system: SW-620; assay: Cytotoxicity against Homo sapiens (human) SW620 cells after 48 hr by sulforhodamine B assay; conditions: SW-620, 48 h
# [25] = system: IGROV-1; assay: Cytotoxicity against Homo sapiens (human) IGROV1 cells after 48 hr by sulforhodamine B assay; conditions: IGROV-1, 48 h
# [26] = system: MDA-MB-435; assay: Cytotoxicity against Homo sapiens (human) MDA-MB-435 cells after 48 hr by sulforhodamine B assay; conditions: MDA-MB-435, 48 h
# [27] = system: SN12C; assay: Cytotoxicity against Homo sapiens (human) SN12C cells after 48 hr by sulforhodamine B assay
# [28] = system: SF-295; assay: Cytotoxicity against Homo sapiens (human) SF295 cells after 48 hr by sulforhodamine B assay; conditions: SF-295, 48 h
# [29] = system: NCI-H322M; assay: Cytotoxicity against Homo sapiens (human) NCI-H322M cells after 48 hr by sulforhodamine B assay
# [30] = system: DU-145; assay: Cytotoxicity against Homo sapiens (human) DU145 cells after 48 hr by sulforhodamine B assay; conditions: DU-145, 48 h
# [31] = system: CAKI-1; assay: Cytotoxicity against Homo sapiens (human) Caki1 cells after 48 hr by sulforhodamine B assay; conditions: CAKI-1, 48 h
# [32] = system: A498; assay: Cytotoxicity against Homo sapiens (human) A498 cells after 48 hr by sulforhodamine B assay; conditions: A498, 48 h
# [33] = read-out: LC50 (the source's name)
smiles,measurement,setting,value
ClCc1cccc(Cn2cnc3nc(Cl)nc(Cl)c32)c1,GI50,[1],1380 nM
same,LC50,[1],5120 nM
same,TGI,[1],2690 nM
same,GI50,[2],1200 nM
same,LC50,[2],4890 nM
same,TGI,[2],2450 nM
same,GI50,[3],1690 nM
same,TGI,[3],3090 nM
same,CC50,[3]; [33],5490 nM
same,GI50,[4],9330 nM
same,LC50 (concentration killing 50% of cells),[4],45700 nM
same,TGI,[4],21400 nM
same,GI50,[5],1690 nM
same,TGI,[5],3230 nM
same,CC50,[5]; [33],6300 nM
same,GI50,[6],1770 nM
same,LC50 (concentration killing 50% of cells),[6],7760 nM
same,TGI,[6],3710 nM
same,GI50,[7],1380 nM
same,LC50,[7],5120 nM
same,TGI,[7],2630 nM
same,GI50,[8],1510 nM
same,LC50,[8],5370 nM
same,TGI,[8],2880 nM
same,GI50,[9],1540 nM
same,LC50 (concentration causing 50% cell kill),[9],5370 nM
same,TGI,[9],2880 nM
same,GI50,[10],1280 nM
same,TGI,[10],3630 nM
same,CC50,[10]; [33],20000 nM
same,GI50,[11],930 nM
same,TGI,[11],2130 nM
same,CC50,[11]; [33],4570 nM
same,GI50,[12],1580 nM
same,LC50,[12],5370 nM
same,TGI,[12],2880 nM
same,GI50,[13],1510 nM
same,LC50 (concentration killing 50% of cells),[13],> 100000 nM
same,TGI,[13],4070 nM
same,GI50,[14],220 nM
same,LC50,[14],> 100000 nM
same,TGI,[14],610 nM
same,GI50,[15],1120 nM
same,TGI,[15],2340 nM
same,CC50,[15]; [33],4780 nM
same,GI50,[16],17400 nM
same,LC50 (concentration causing 50% net cell kill),[16],72400 nM
same,TGI,[16],35500 nM
same,GI50,[17],170 nM
same,LC50 (concentration killing 50% of cells),[17],970 nM
same,TGI,[17],400 nM
same,GI50,[18],340 nM
same,GI50,[19],1380 nM
same,LC50 (concentration killing 50% of cells),[19],5120 nM
same,TGI,[19],2690 nM
same,GI50,[20],480 nM
same,LC50 (50% lethal concentration),[20],4160 nM
same,TGI,[20],1730 nM
same,GI50,[21],1470 nM
same,TGI,[21],2750 nM
same,CC50,[21]; [33],5240 nM
same,growth at 100 µM,[22],0%
same,GI50,[23],160 nM
same,LC50 (concentration killing 50% of cells),[23],1620 nM
same,TGI,[23],460 nM
same,GI50,[24],410 nM
same,TGI,[24],1650 nM
same,CC50,[24]; [33],4070 nM
same,GI50,[25],17000 nM
same,LC50,[25],55000 nM
same,TGI,[25],30900 nM
same,GI50,[26],1470 nM
same,LC50,[26],5240 nM
same,TGI,[26],2810 nM
same,GI50,[27],1440 nM
same,TGI,[27],2750 nM
same,GI50,[28],1860 nM
same,TGI,[28],3380 nM
same,CC50,[28]; [33],6300 nM
same,GI50,[29],14100 nM
same,TGI,[29],26900 nM
same,CC50,[29]; [33],52500 nM
same,GI50,[30],140 nM
same,LC50,[30],520 nM
same,TGI,[30],260 nM
same,GI50,[31],1860 nM
same,TGI,[31],3460 nM
same,GI50,[32],1510 nM
same,"LC50 (lethal concentration, 50% cell kill)",[32],5370 nM
same,TGI,[32],2810 nM
